Assay results from US6124323A, “4-substituted piperidine analogs and their use as subtype selective NMDA receptor antagonists” (Warner-Lambert Company, priority 1998, dated 2000).
Counter-ions that a name gives are not always drawn. Like-named read-outs stand apart in the source and are kept apart here.

What was measured:
Format in all cases: cell-based
[1] = target: T1, NMDA receptor subunits 1A/2B (Rattus norvegicus, UniProt P35439+Q00960); assay: Electrophysiological assay at NMDA receptor subunits expressed in Xenopus oocytes, 1A/2B
T1 construct: expressed in transfected cells; host or cells: Xenopus laevis oocytes (cRNA injection; clones from Dr. P. H. Seeburg)
Method: (§1) Many of the properties of native NMDA receptors are seen in recombinant homomeric NR1 receptors. These properties are altered by the NR2 subunits. Recombinant NMDA receptors expressed in Xenopus oocytes have been studied by voltage-clamp recording, as has developmental and regional expression of the mRNAs encoding NMDA receptor subunits. Electrophysiological assays were utilized to characterize the actions of compounds at NMDA receptors expressed in Xenopus oocytes. The compounds were assayed at four subunit combinations of cloned rat NMDA receptors, corresponding to three putative NMDA receptor subtypes [Moriyoshi, et al. Nature 1991, 354, 31-37; Monyer et al, Science 1992, 256, 1217-1221; Kutsuwada et al, Nature 1992, 358, 36-41; Sugihara et al, Biochem. Biophys Res. Commun. 1992, 185, 826-832].
(§2) Electrophysiological Assays at NMDA Receptor Subunits
(§3) Preparation of RNA. cDNA clones encoding the NR1A, NR2A, NR2B, NR2C and NR2D rat NMDA receptor subtypes were provided by Dr. P. H. Seeburg (see, Moriyoshi et al., Nature (Lond.) 354:31-37 (1991); Kutsuwada et al., Nature (Lond.) 358:36-41 (1992) Monyer et al., Science (Washington, D.C.) 256:1217-1221 (1992); Ikeda et al., FEBS Lett. 313:34-38 (1992); Ishii et al., J. Biol. Chem. 268:2836-2843 (1993) for details of these clones or their mouse homologs). The clones were transformed into appropriate host bacteria and plasmid preparations were made with conventional DNA purification techniques. A sample of each clone was linearized by restriction enzyme digestion and cRNA was synthesized with T3 RNA polymerase. The cRNA was diluted to 400 ng/μl and stored in 1 μl aliquots at -80° C. until injection.
(§4) The Xenopus oocyte expression system. Mature female Xenopus laevis were anaesthetized (20-40 min) using 0.15% 3-aminobenzoic acid ethyl ester (MS-222) and 2-4 ovarian lobes were surgically removed. Oocytes at developmental stages IV-VI (Dumont, J. N., J. Morphol. 136:153-180 (1972)), were dissected from the ovary still surrounded by enveloping ovarian tissues. Follicle-enclosed oocytes were micro-injected with 1:1 mixtures of cRNA:NR1A+NR2A, 2B, 2C or 2D; injecting ~2,5, or 20 ng of RNA encoding each receptor subunit. NR1A encoding cRNA was injected alone at ~20 ng. Oocytes were stored in Barth's medium containing (in mM):NaCl, 88; KCl, 1; CaCl2, 0.41; Ca(NO3)2, 0.33; MgSO4, 0.82 NaHCO3, 2.4; HEPES 5, pH 7.4, with 0.1 mg/ml gentamicin sulphate. While oocytes were still surrounded by enveloping ovarian tissues the Barth's medium was supplemented with 0.1% bovine serum. Oocytes were defolliculated 1-2 days following injections by treatment with collagenase (0.5 mg/ml Sigma Type I for 0.5-1 hr) (Miledi and Woodward, J. Physiol. (Lond.) 416:601-621 (1989)) and subsequently stored in serum-free medium.
(§5) Electrical recordings were made using a conventional two-electrode voltage clamp (Dagan TEV-200) over periods ranging between 3-21 days following injection. (Woodward et al., Mol. Pharmacol. 41: 89-103 (1992)). Oocytes were placed in a 0.1 ml recording chamber continuously perfused (5-15 ml min^-1 ) with frog Ringer's solution containing (in mM):NaCl, 115; KCl, 2; CaCl2, 1.8; HEPES, 5; pH 7.4. Drugs were applied by bath perfusion. Using oocytes expressing different subunit combinations of NMDA receptor, NMDA currents were activated by co-application of glutamate (100 μm) and glycine (1-100 μm). Inhibitory potency of the novel antagonists was assessed on responses elicited by fixed concentrations of glutamate and glycine, by measuring reductions in current induced by progressively increasing concentrations of antagonist. Concentration-inhibition curves were fit with equation 1.
(§6) I/Icontrol =1/(1+([antagonist]/10^-pIC50)^n) Eq. 1
(§7) in which Icontrol is the current evoked by agonists alone, pIC50 =-log IC50, IC50 is the concentration of antagonist that produces half maximal inhibition, and n is the slope factor. (De Lean et al., Am. J. Physiol. 235:E97-102 (1978)). […]

[2] = target: T2, NMDA receptor subunits 1A/2A (Rattus norvegicus, UniProt P35439+Q00959); assay: Electrophysiological assay at NMDA receptor subunits expressed in Xenopus oocytes, 1A/2A; details: glutamate 100 μm and glycine 1-100 μm
T2 construct: expressed in transfected cells; host or cells: Xenopus laevis oocytes (cRNA injection; clones from Dr. P. H. Seeburg)
Method: as §1, §2, §3, §4, §5, §6, §7

[3] = target: T3, NMDA receptor subunits 1A/2C (Rattus norvegicus, UniProt P35439+Q00961); assay: Electrophysiological assay at NMDA receptor subunits expressed in Xenopus oocytes, 1A/2C
T3 construct: expressed in transfected cells; host or cells: Xenopus laevis oocytes (cRNA injection; clones from Dr. P. H. Seeburg)
Method: as §1, §2, §3, §4, §5, §6, §7

[4] = Xenopus oocytes, glutamate 100 μm and glycine 1-100 μm, read-out: Subunits IC50, 1A/2B
[5] = Xenopus oocytes, glutamate 100 μm and glycine 1-100 μm, read-out: Subunits IC50, 1A/2C

T2 sequence (Q00959 20-1464 limits assumed, other chains not shown): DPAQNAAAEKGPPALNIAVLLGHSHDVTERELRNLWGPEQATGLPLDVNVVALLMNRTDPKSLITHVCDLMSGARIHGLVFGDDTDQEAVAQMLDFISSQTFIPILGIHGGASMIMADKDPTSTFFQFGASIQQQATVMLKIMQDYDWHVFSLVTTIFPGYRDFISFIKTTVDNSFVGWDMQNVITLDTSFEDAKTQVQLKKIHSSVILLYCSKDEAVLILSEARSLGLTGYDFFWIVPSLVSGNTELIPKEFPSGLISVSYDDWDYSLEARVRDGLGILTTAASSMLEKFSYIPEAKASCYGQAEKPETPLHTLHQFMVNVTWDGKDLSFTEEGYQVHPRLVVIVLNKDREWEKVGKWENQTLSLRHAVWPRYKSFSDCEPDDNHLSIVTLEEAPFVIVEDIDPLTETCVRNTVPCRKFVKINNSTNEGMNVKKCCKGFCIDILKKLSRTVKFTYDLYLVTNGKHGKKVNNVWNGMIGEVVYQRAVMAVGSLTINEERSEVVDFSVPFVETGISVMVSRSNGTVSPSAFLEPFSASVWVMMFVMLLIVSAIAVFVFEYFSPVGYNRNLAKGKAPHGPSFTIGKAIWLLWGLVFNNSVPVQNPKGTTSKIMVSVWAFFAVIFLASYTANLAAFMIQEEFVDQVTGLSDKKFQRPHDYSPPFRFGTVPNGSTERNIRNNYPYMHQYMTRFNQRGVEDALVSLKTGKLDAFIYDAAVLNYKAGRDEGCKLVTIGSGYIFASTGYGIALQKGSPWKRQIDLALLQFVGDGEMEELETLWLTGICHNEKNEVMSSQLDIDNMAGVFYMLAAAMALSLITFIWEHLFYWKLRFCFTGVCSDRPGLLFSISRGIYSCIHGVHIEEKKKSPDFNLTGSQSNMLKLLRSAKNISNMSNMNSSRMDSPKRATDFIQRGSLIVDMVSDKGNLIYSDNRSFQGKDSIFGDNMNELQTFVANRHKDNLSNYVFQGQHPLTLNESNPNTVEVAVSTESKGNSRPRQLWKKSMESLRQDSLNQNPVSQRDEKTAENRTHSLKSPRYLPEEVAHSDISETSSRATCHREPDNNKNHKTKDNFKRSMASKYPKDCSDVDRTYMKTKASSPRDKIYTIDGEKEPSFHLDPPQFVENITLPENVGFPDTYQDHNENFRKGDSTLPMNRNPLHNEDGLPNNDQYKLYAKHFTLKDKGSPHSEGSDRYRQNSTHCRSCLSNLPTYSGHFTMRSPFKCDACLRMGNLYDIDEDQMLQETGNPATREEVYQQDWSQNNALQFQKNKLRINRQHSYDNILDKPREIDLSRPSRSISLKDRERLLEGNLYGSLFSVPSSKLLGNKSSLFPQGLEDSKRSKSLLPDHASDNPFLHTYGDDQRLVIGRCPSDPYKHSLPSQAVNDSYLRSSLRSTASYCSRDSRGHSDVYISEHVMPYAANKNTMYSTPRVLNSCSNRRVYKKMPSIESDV
T3 sequence (Q00961 20-1237, other chains not shown): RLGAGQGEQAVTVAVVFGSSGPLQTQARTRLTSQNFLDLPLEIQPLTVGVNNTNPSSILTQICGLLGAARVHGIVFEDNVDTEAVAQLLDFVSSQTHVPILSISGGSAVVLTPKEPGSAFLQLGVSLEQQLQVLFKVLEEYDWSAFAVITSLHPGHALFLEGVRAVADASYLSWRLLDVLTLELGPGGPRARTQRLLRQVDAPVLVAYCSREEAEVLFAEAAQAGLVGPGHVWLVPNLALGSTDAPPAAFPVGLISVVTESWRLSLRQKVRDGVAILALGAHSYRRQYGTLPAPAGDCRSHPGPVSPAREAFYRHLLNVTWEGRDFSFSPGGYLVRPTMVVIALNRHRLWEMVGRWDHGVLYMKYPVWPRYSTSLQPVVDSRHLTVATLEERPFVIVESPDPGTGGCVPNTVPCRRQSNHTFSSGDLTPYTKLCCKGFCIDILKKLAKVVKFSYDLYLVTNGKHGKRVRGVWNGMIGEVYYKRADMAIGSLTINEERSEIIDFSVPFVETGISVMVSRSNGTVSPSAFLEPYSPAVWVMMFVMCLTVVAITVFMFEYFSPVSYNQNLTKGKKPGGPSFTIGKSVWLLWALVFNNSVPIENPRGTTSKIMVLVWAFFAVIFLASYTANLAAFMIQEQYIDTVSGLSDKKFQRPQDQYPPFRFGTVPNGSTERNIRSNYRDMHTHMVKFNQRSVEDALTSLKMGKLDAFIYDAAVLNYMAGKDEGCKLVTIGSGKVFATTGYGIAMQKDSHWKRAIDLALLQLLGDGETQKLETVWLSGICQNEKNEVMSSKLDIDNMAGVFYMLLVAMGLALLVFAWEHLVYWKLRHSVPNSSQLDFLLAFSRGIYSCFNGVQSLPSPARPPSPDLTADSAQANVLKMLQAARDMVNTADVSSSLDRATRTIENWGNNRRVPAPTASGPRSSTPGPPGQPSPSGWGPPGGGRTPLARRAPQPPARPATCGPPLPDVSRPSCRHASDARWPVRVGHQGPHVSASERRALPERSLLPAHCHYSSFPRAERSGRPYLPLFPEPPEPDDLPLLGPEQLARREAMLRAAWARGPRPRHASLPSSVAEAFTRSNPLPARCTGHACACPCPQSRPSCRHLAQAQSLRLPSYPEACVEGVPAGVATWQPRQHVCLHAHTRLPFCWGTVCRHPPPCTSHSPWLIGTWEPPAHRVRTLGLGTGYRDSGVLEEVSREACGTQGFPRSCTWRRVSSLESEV
T1 sequence (Q00960 27-1482, other chains not shown): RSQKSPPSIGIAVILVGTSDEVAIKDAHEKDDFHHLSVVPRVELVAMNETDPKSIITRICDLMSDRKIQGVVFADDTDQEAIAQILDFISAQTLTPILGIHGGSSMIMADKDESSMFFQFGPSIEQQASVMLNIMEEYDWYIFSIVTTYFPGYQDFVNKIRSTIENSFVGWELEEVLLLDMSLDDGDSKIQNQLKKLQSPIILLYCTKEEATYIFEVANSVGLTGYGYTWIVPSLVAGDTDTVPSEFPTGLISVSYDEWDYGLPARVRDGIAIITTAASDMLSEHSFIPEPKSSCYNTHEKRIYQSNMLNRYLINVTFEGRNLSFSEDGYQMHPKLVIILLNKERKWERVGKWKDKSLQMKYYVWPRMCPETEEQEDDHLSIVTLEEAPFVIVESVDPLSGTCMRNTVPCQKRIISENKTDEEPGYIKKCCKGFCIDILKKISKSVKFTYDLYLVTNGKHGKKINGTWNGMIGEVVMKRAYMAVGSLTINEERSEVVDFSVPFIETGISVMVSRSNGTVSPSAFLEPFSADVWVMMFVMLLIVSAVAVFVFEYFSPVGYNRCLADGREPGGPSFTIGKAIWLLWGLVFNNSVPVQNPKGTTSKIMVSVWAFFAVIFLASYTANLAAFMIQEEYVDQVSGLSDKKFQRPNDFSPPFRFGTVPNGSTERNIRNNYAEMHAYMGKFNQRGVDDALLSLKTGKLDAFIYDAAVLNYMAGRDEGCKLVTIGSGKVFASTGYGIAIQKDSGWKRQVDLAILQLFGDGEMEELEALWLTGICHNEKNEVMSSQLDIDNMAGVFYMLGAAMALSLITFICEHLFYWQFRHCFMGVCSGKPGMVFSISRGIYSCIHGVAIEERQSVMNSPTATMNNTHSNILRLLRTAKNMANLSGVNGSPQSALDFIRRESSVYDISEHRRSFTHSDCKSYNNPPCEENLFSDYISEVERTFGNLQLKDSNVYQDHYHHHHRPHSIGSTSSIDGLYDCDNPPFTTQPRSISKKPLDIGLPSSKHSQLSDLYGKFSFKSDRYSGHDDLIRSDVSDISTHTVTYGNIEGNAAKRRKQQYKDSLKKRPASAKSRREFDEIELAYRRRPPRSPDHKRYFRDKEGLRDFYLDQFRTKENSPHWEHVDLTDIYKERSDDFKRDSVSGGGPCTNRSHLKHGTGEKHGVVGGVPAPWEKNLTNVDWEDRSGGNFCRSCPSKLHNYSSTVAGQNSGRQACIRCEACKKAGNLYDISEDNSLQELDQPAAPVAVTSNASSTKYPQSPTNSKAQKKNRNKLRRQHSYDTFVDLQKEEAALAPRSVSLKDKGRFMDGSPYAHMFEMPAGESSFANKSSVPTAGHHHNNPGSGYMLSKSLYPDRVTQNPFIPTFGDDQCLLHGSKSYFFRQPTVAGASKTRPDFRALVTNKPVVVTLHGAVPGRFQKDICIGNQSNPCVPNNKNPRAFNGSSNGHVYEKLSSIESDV

| SMILES | IC50 [1, 4] [µM] | IC50 [2] [µM] | IC50 [3, 5] [µM] | IC50 [1] [µM] | IC50 [3] [µM] |
| --- | --- | --- | --- | --- | --- |
| OC(CCc1ccccc1)CN1CCC(Cc2ccccc2)CC1 (stereo not drawn) [Ex. 4, 4-Benzyl-1-[(2-hydroxy-4-phenyl)butyl]piperidine] | 9 | > 100 | > 100 |  |  |
| c1ccc(OCCCN2CCC(c3ccccc3)CC2)cc1 [Ex. 7, 1-(3-Phenoxypropyl)-4-phenylpiperidine] | 10 | > 100 | > 100 |  |  |
| c1ccc(OCCCCN2CCC(c3ccccc3)CC2)cc1 [Ex. 9, 1-(4-Phenoxybutyl)-4-phenylpiperidine] | 10 | > 100 | > 100 |  |  |
| Clc1ccc(OCCN2CCC(Cc3ccccc3)CC2)cc1 [Ex. 11, 4-Benzyl-1-(2-(4-chlorophenoxy)ethyl)piperidine hydrochloride] | 10 |  | > 100 |  |  |
| O=[N+]([O-])c1ccc(OCCN2CCC(Cc3ccccc3)CC2)cc1 [Ex. 12, 4-Benzyl-1-(2-(4-nitrophenoxy)ethyl)piperidine hydrobromide] | 6 |  | > 100 |  |  |
| N#Cc1ccc(OCCN2CCC(Cc3ccccc3)CC2)cc1 [Ex. 14, 4-Benzyl-1-(2-(4-cyanophenoxy)ethyl)piperidine] | 3 |  | > 100 |  |  |
| CCOC(=O)Cc1cccc(OCCN2CCC(Cc3ccccc3)CC2)c1 [Ex. 17, 4-Benzyl-1-(2-(3-(ethoxycarbonylmethyl)phenoxy)ethyl)piperidine] | 3 |  | > 100 |  |  |
| NNC(=O)Cc1cccc(OCCN2CCC(Cc3ccccc3)CC2)c1 [Ex. 20, 4-Benzyl-1-(2-(3-(hydrazinocarbonylmethyl)phenoxy)ethyl)piperidine] | 0.7 | 5.5 | > 100 |  |  |
| CC(COc1ccccc1)N1CCC(Cc2ccccc2)CC1 (stereo not drawn) [Ex. 21, 4-Benzyl-1-(1-methyl-2-phenoxyethyl)piperidine hydrobromide] | 2.5 | 45 | > 100 |  |  |
| Clc1ccc(CC2CCN(CCOc3ccc(Cl)cc3)CC2)cc1 [Ex. 26, 4-(4-Chlorobenzyl)-1-(2-(4-chlorophenoxyethyl)piperidine hydrochloride] | 12 |  | > 100 |  |  |
| OCCc1cccc(OCCN2CCC(Cc3ccc(Cl)cc3)CC2)c1 [Ex. 29, 4-(4-Chlorobenzyl)-1-(2-(3-(2-hydroxyethyl)phenoxy)ethyl)piperidine] | 0.5 |  | > 100 |  |  |
| Fc1ccc(CC2CCN(CCOc3ccc(Cl)cc3)CC2)cc1 [Ex. 34, 4-(4-Fluorobenzyl)-1-(2-(4-chlorophenoxy)ethyl)piperidine hydrochloride] | 15 |  | > 100 |  |  |
| COc1ccc(CC2CCN(CCOc3ccc(F)cc3)CC2)cc1 [Ex. 35, 1-(2-(4-Fluorophenoxy)ethyl)-4-(4-methoxybenzyl)piperidine hydrochloride] | 4 |  | > 100 |  |  |
| O=[N+]([O-])c1ccc(CC2CCN(CCOc3ccc(F)cc3)CC2)cc1 [Ex. 36, 1-(2-(4-Fluorophenoxy)ethyl)-4-(4-nitrobenzyl)piperidine hydrobromide] | 22 | 40 | > 100 |  |  |
| O=[N+]([O-])c1ccc(CC2CCN(CCCOc3ccccc3)CC2)cc1 [Ex. 37, 4-(4-Nitrobenzyl)-1-(3-phenoxypropyl)piperidine hydrobromide] | 10 | 14 | > 100 |  |  |
| Fc1ccc(NC2CCN(CCOc3ccc(F)cc3)CC2)cc1 [Ex. 39, 1-(2-(4-Fluorophenoxy)ethyl)-4-(N-(4-fluoroanilino)piperidine hydrochloride] | 60 |  | > 100 |  |  |

| SMILES | IC50 [1, 4] [µM] | IC50 [2] [µM] | IC50 [3, 5] [µM] | IC50 [1] [µM] | IC50 [3] [µM] |
| --- | --- | --- | --- | --- | --- |
| OC1CN(CCCOc2ccccc2)CCC1c1cccc(C(F)(F)F)c1 (stereo not drawn) [Ex. 46, 3-Hydroxy-1-(3-phenoxypropyl)-4-(3-trifluoromethylphenyl)piperidine hydrochloride] | 1.5 |  | > 100 |  |  |
| OC1(Cc2ccccc2)CCN(CCCOc2ccccc2)CC1 [Ex. 48, 4-Benzyl-4-hydroxy-1-(3-phenoxypropyl)piperidine] | 22 |  | > 100 |  |  |
| ClCCN1CCC(Cc2ccccc2)CC1 [Ex. 49, 4-Benzyl-1-(2-chloroethyl)piperidine] |  |  |  | 5 | > 100 |
| O=[N+]([O-])c1ccccc1OCCN1CCC(Cc2ccccc2)CC1 [Ex. 60, 4-Benzyl-1-[2-(2-nitrophenoxy)ethyl]piperidine] | 6 |  | > 100 |  |  |
| c1ccc(CC2CCN(CCOc3ncnc4ccccc34)CC2)cc1 [Ex. 66] | 10 |  | > 100 |  |  |
| COc1ccccc1OCCN1CCC(Cc2ccccc2)CC1 [Ex. 68, 4-Benzyl-1-[2-(2-methoxyphenoxy)ethyl]piperidine] | 5 |  | > 100 |  |  |
| CC(=O)Nc1ccc(OCCN2CCC(Cc3ccccc3)CC2)cc1NC(C)=O [Ex. 71A, 4-Benzyl-1-[2-(3,4-bisacetamidophenoxy)ethyl]piperidine] | 20 |  | > 100 |  |  |
| Cc1nc2cc(OCCN3CCC(Cc4ccccc4)CC3)ccc2[nH]1 [Ex. 71C, 4-Benzyl-1-[2-(2-methylbenzimidazol-5-oxy)ethyl]piperidine] | 8 |  | > 100 |  |  |
| c1ccc(CCCN2CCC(Cc3ccccc3)CC2)cc1 [Ex. 84, 4-Benzyl-1-(3-phenylpropyl)piperidine hydrochloride] | 2.2 |  | > 100 |  |  |
| OC1(Cc2ccccc2)CCN(CCCc2ccccc2)CC1 [Ex. 91, 4-Benzyl-4-hydroxy-1-(3-phenylpropyl)piperidine hydrochloride] | 22 |  | > 100 |  |  |
| Fc1ccc(OCCN2CCC(Cc3ccc4c(c3)CCCC4)CC2)cc1 [Ex. 140, 1-(2-(4-Fluorophenoxy)ethyl)-4-((5,6,7,8-tetrahydro-2-naphthyl)methyl)piperidine hydrochloride] | 28 | 80 |  |  |  |
| Oc1ccc(OCCN2CCC(Cc3ccc4ccccc4c3)CC2)cc1 [Ex. 141, 1-(2-(4-Hydroxyphenoxy)ethyl)-4-((2-naphthyl)methyl)piperidine hydrochloride] | 0.1 |  | 90 |  |  |
| Oc1ccccc1OCCN1CCC(Cc2ccc(F)cc2)CC1 [Ex. 158, 4-(4-Fluorobenzyl)-1-[2-(2-hydroxyphenoxy)ethyl]piperidine hydrochloride] | 0.3 |  | 190 |  |  |
| Oc1ccc(OCCN2CCC(O)(Cc3ccccc3)CC2)cc1 [Ex. 164, 4-Benzyl-4-hydroxy-1-[2-(4-hydroxyphenoxy)ethyl]piperidine hydrochloride] | 0.12 |  | > 300 |  |  |
| Cn1c(=O)[nH]c2ccc(OCCN3CCC(Cc4ccccc4)CC3)cc21 [Ex. 193, 4-Benzyl-1-(2-(3-methyl-2-oxobenzamidazol-5-oxy)ethyl)piperidine] | 0.2 |  | > 300 |  |  |
